From ChEMBL document CHEMBL1135258, “Substrate spectrum of tyrocidine thioesterase probed with randomized peptide N-acetylcysteamine thioesters” (Bioorg Med Chem Lett, 2002)

Tests used:
[1] = target: T1, Thioesterase GrsT homolog tycF (Brevibacillus brevis) (UniProt O30412); experiment: Apparent kinetic constant (Kcat) for tyrocidine thioesterase amplified from Bacillus brevis (ATCC8185)
T1 sequence (whole entry): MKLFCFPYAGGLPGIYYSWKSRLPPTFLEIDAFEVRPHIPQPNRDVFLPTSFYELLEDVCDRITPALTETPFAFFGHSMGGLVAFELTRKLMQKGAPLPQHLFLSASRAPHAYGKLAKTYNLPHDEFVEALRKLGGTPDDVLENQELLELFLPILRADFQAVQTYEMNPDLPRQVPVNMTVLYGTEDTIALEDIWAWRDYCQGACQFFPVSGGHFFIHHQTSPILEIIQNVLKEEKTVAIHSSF

[2] = target: T1, Thioesterase GrsT homolog tycF (Brevibacillus brevis); experiment: Catalytic efficiency (Kcat/Km) was determined; set-up: unit not given here

Row | Compound | k cat [1] [s⁻¹] | Ratio [2]
1 | CC(=O)NCCSC(=O)[C@H](CC(C)C)NC(=O)[C@H](CCCN)NC(=O)[C@@H](NC(=O)[C@H](Cc1ccc(O)cc1)NC(=O)[C@H](CCC(N)=O)NC(=O)[C@H](CC(N)=O)NC(=O)[C@H](Cc1ccccc1)NC(=O)[C@H](Cc1ccccc1)NC(=O)[C@@H]1CCCN1C(=O)[C@H](N)Cc1ccccc1)C(C)C | 0.105 | 1.3
2 | CC(=O)NCCSC(=O)[C@H](CC(C)C)NC(=O)[C@H](CCCN)NC(=O)[C@@H](NC(=O)[C@H](Cc1ccc(O)cc1)NC(=O)[C@H](CCC(N)=O)NC(=O)[C@H](CC(N)=O)NC(=O)[C@H](CS)NC(=O)[C@H](Cc1ccccc1)NC(=O)[C@@H]1CCCN1C(=O)[C@H](N)Cc1ccccc1)C(C)C | 0.11 | 0.25
3 | CC[C@@H](C)[C@H](NC(=O)[C@H](CC(N)=O)NC(=O)[C@@H](Cc1ccccc1)NC(=O)[C@H](Cc1ccccc1)NC(=O)[C@@H]1CCCN1C(=O)[C@H](N)Cc1ccccc1)C(=O)N[C@@H](Cc1ccc(O)cc1)C(=O)N[C@H](C(=O)N[C@@H](CCCN)C(=O)N[C@@H](CC(C)C)C(=O)SCCNC(C)=O)C(C)C | 0.123 | 0.09
4 | CC(=O)NCCSC(=O)[C@H](CC(C)C)NC(=O)[C@H](CCCN)NC(=O)[C@H](CCC(N)=O)NC(=O)[C@H](Cc1ccc(O)cc1)NC(=O)[C@H](CCC(N)=O)NC(=O)[C@H](CC(N)=O)NC(=O)[C@@H](Cc1ccccc1)NC(=O)[C@H](Cc1ccccc1)NC(=O)[C@@H]1CCCN1C(=O)[C@H](N)Cc1ccccc1 | 0.233 | 0.22
5 | CC(=O)NCCSC(=O)[C@H](CC(C)C)NC(=O)[C@H](CCCN)NC(=O)[C@@H](NC(=O)[C@H](CC(N)=O)NC(=O)[C@H](CCC(N)=O)NC(=O)[C@H](CC(N)=O)NC(=O)[C@@H](Cc1ccccc1)NC(=O)[C@H](Cc1ccccc1)NC(=O)[C@@H]1CCCN1C(=O)[C@H](N)Cc1ccccc1)C(C)C | 0.333 | 2.63
6 | CC[C@H](C)[C@H](NC(=O)[C@H](Cc1ccccc1)NC(=O)[C@@H]1CCCN1C(=O)[C@H](N)Cc1ccccc1)C(=O)N[C@@H](CC(N)=O)C(=O)N[C@@H](CCC(N)=O)C(=O)N[C@@H](Cc1ccc(O)cc1)C(=O)N[C@H](C(=O)N[C@@H](CCCN)C(=O)N[C@@H](CC(C)C)C(=O)SCCNC(C)=O)C(C)C | 0.183 | 0.33
7 | CC(=O)NCCSC(=O)[C@H](CC(C)C)NC(=O)[C@H](CCCN)NC(=O)[C@@H](NC(=O)[C@H](Cc1ccc(O)cc1)NC(=O)[C@H](CCC(N)=O)NC(=O)[C@H](CC(N)=O)NC(=O)[C@@H](Cc1ccccc1)NC(=O)[C@H](CC(N)=O)NC(=O)[C@@H]1CCCN1C(=O)[C@H](N)Cc1ccccc1)C(C)C | 0.233 | 0.083
8 | CC(=O)NCCSC(=O)[C@H](CC(C)C)NC(=O)[C@H](CCCN)NC(=O)[C@@H](NC(=O)[C@H](Cc1ccc(O)cc1)NC(=O)[C@H](CCC(N)=O)NC(=O)[C@H](CC(N)=O)NC(=O)[C@@H](Cc1ccccc1)NC(=O)[C@H](Cc1ccccc1)NC(=O)[C@@H]1CCCN1C(=O)[C@H](N)Cc1ccccc1)C(C)C (stereo in doubt; form 2) | 0.55 | 2.65
9 | CC(=O)NCCSC(=O)[C@H](CC(C)C)NC(=O)[C@H](CCCN)NC(=O)[C@@H](NC(=O)[C@H](Cc1ccc(O)cc1)NC(=O)[C@H](CCC(N)=O)NC(=O)[C@H](CC(N)=O)NC(=O)[C@H](CCCN=C(N)N)NC(=O)[C@H](Cc1ccccc1)NC(=O)[C@@H]1CCCN1C(=O)[C@H](N)Cc1ccccc1)C(C)C | 0.2 | 0.51
10 | CC(=O)NCCSC(=O)[C@H](CC(C)C)NC(=O)[C@H](CCCN)NC(=O)[C@H](CC(N)=O)NC(=O)[C@H](Cc1ccc(O)cc1)NC(=O)[C@H](CCC(N)=O)NC(=O)[C@H](CC(N)=O)NC(=O)[C@@H](Cc1ccccc1)NC(=O)[C@H](Cc1ccccc1)NC(=O)[C@@H]1CCCN1C(=O)[C@H](N)Cc1ccccc1 | 0.2 | 0.22
